Measurements taken from patent US10745400B2, “Inhibition of BMP signaling, compounds, compositions and uses thereof” (Vanderbilt University, priority 2018, dated 2020).
Changes are numbered by the printed parent chain.

How the values were obtained:
ALK1/ACVRL1 = ALK1/ACVRL1 (Homo sapiens, UniProt P37023); test: Kinase assay (33P-ATP filter-binding), ALK1; type: biochemical; details: read-out: Kinase Selectivity ALK1/ACVRL1
Procedure, shortened: (§1)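 After 20 minutes of compound–kinase–substrate preincubation at room temperature in Hepes pH 7.5 buffer (MgCl2, EGTA, Brij35, BSA, vanadate, DTT, 1% DMSO), 33P-ATP was added. Reactions ran 2 hours at room temperature before spotting on P81 ion exchange paper for filter-binding detection.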

caALK1 = caALK1 (Homo sapiens, UniProt P37023); test: Subtype analysis, constitutively active caALK1; type: cell-based; details: Primary In Vitro Data, constitutively active ALK1
Chain of caALK1 (P37023 whole entry Q201D, form open): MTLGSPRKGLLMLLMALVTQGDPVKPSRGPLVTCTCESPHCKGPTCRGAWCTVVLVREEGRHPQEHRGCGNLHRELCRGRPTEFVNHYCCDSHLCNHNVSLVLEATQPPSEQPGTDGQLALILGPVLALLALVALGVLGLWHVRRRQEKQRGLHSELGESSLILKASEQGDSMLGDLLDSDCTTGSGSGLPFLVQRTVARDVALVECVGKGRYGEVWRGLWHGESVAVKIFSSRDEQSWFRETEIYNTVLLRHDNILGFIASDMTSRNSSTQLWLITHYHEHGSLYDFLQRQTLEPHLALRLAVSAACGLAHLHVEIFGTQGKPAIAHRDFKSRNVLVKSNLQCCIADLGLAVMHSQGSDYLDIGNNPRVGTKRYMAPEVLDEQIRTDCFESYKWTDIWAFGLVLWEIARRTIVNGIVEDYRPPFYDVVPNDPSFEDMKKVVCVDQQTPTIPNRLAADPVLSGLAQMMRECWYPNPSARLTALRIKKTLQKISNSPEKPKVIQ

caALK2 = biological target: T1, caALK2 (Homo sapiens, UniProt Q04771, Q207D); test: Subtype analysis, C2C12BRA cells transfected with constitutively active caALK2; type: cell-based; details: Primary In Vitro Data, constitutively active ALK2
T1 construct: expressed in transfected cells; host or cells: C2C12BRA cells (mouse myoblast, BMP-responsive reporter)
T1 sequence (Q04771 21-509 Q207D): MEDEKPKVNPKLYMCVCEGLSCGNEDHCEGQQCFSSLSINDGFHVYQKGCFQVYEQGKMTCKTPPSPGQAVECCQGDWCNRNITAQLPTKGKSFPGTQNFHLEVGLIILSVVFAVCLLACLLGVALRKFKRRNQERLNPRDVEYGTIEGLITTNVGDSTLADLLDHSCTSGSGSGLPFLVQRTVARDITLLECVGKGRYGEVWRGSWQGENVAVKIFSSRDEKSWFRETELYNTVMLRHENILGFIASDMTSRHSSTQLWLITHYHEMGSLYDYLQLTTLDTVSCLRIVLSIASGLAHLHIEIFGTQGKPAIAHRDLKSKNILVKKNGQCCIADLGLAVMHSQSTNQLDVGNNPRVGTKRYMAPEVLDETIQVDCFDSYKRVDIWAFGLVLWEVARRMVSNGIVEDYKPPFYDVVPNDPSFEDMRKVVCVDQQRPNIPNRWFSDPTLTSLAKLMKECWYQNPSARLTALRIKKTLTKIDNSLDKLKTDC
Experimental: (§2) The BMP4 cell assay were carried out briefly as follows. Stably transfected BMP-responsive C2C12 mouse myoblast cells (containing the Idl promoter-firefly luciferase reporter) were seeded in 96-well plates and incubated overnight with the compounds and BMP4 (50 ng/mL). The cells were then lysed, and cell extracts were then subjected to the firefly luciferase assay using Steady-Glo luciferase assay kit (Promega). The results were normalized to cell titers, as measured using Cell Titer-Glo luminescence assay (Promega). For subtype analysis, C2C12BRA cells were transiently transfected with plasmids (0.1 μg) expressing constitutively active forms of the BMP type I receptors (caALK2, caALK3 or caALK6) using Lipofectamine kit (Invitrogen) in 96 well plates; 0.1 μg of pRL-TK Renilla luciferase (Promega) was used to control for transfection efficiency. Relative activity was quantified by the ratio of firefly to Renilla luciferase activities using the dual luciferase assay kit (Promega).

ALK2 (Q207D) = biological target: T2, ALK2 (Q207D) (Homo sapiens, UniProt Q04771, Q207D); test: Kinase assay (33P-ATP filter-binding), ALK2 Q207D; type: biochemical; details: Q207D mutant, 20 mM; read-out: Kinase Selectivity ALK2 (Q207D, 20 mM)
T2 sequence (Q04771 21-509 Q207D): T1 sequence (Q04771 21-509 Q207D)
Experimental: (§3) The kinase assays were carried out briefly as follows. Substrate was prepared in Base Reaction Buffer (20 mM Hepes (pH 7.5), 10 mM MgCl2, 1 mM EGTA, 0.02% Brij35, 0.02 mg/ml BSA, 0.1 mM Na3VO4, 2 mM DTT, 1% DMSO). The indicated kinases was delivered into the substrate solution and allowed to gently mix. Next, the specific compound was delivered in DMSO into the kinase mixture by Acoustic technology (Echo550; nanoliter range), and allowed to incubate for 20 minutes at room temperature. Next, ^33P-ATP was delivered into the reaction mixture to initiate the reaction and allowed to incubate at room temperature. After 2 hours, the reactions were spotted onto P81 ion exchange paper and the kinase activity is detected by the filter-binding method.

ALK2 (R206H) = biological target: T3, ALK2 (R206H) (Homo sapiens, UniProt Q04771, R206H); test: Kinase assay (33P-ATP filter-binding), ALK2 R206H; type: biochemical; details: R206H mutant, 20 mM; read-out: Kinase Selectivity ALK2 (R206H, 20 mM)
T3 sequence (Q04771 21-509 R206H): T1 sequence (Q04771 21-509 Q207D) with R186H, D187Q
Experimental: as §3

[1] = tested on: BMP-responsive C2C12 mouse myoblast cells stimulated with BMP4; test: BMP4 cell assay (Id1 promoter-firefly luciferase reporter); type: cell-based; details: Mus musculus; C2C12 cells, BMP4 50 ng/mL, overnight
Experimental: as §2, with “For subtype analysis, C2C12BRA cells were transiently transfected with plasmids (0.1 μg) expressing constitutively active forms of the BMP type I receptors (caALK2, caALK3 or caALK6) using Lipofectamine kit (Invitrogen) in 96 well plates; 0.1 μg of pRL-TK Renilla luciferase (Promega) was used to control for transfection efficiency.” left out

ALK3/BMPR1A = ALK3/BMPR1A (Homo sapiens, UniProt P36894); test: Kinase assay (33P-ATP filter-binding), ALK3; type: biochemical; details: 1 mM; read-out: Kinase Selectivity ALK3/BMPR1A (1 mM)
Chain of ALK3/BMPR1A (P36894 24-532): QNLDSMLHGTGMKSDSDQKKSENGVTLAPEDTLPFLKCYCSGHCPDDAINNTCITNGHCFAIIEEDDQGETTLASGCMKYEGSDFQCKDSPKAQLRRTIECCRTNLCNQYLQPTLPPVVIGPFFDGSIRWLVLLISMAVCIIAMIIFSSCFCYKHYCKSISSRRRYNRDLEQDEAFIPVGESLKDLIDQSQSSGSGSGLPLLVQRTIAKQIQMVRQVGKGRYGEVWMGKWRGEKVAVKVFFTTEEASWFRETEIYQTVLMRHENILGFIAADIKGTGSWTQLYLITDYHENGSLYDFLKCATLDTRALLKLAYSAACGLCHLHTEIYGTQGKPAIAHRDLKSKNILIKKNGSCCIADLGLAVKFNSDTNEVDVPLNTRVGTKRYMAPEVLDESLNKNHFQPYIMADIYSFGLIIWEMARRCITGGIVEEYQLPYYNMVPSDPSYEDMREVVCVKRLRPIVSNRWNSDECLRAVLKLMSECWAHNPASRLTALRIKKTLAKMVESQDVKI
Procedure, shortened: as §1

ALK2/ACVR1 = biological target: T4, ALK2/ACVR1 (Homo sapiens, UniProt Q04771); test: Kinase assay (33P-ATP filter-binding), ALK2; type: biochemical; details: 20 mM; read-out: Kinase Selectivity ALK2/ACVR1 (20 mM)
T4 sequence (Q04771 21-509): T1 sequence (Q04771 21-509 Q207D) with D187Q
Experimental: as §3

Chain of ALK1/ACVRL1 (P37023 22-503): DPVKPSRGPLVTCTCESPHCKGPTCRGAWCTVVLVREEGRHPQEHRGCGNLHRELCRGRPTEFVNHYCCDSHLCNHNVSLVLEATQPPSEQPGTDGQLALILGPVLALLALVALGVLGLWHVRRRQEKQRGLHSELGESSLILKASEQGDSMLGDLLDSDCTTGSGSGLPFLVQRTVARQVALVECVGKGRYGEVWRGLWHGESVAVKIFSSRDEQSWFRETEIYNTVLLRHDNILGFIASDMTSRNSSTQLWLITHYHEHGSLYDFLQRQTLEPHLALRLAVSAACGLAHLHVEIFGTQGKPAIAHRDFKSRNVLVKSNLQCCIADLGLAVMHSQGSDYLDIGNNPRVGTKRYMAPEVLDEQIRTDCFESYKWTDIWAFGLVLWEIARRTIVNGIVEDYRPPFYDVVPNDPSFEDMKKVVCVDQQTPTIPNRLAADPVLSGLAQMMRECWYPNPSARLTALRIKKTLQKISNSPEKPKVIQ

IC50 (ALK1/ACVRL1) [nM]	IC50 (caALK1) [nM]	IC50 (caALK2) [nM]	IC50 (ALK2 (Q207D)) [nM]	IC50 (ALK2 (R206H)) [nM]	IC50 [1] [nM]	IC50 (ALK3/BMPR1A) [nM]	IC50 (ALK2/ACVR1) [nM]	Structure (SMILES)
1200	189	44	79.1	105	66	< 5.08	114	Cc1cc(-c2cnc3cc(-c4ccc(N5CCN(C)CC5)cc4)ccn23)c2cccnc2n1 [Compound 28]
767	178	16	77.6	88.2	112	17.4	84.9	CN1CCN(c2ccc(-c3ccn4c(-c5ccnc6ncccc56)cnc4c3)cc2)CC1 [Compound 29]
